# From patent publication US20100022517A1, “OPHTHALMIC FORMULATION OF RHO KINASE INHIBITOR COMPOUND” (priority 2006, published 2010)
# Like-named read-outs stand apart in the source and are kept apart here.
# Assays:
# [1] = Impact of pH on solubility, buffered cosolvent system (plON pSOL Evolution); format: physicochemical; conditions: for solubility: buffered cosolvent system
# Method: Solubility was determined within a target pH range of 4.0-9.0 using a buffered cosolvent system (plON pSOL Evolution).
# [2] = Effect of formulation pH on ocular surface, aqueous humor and systemic bioavailability after topical ocular dosing; format: in vivo
# Method: Dose Formulation and Administration. Compound A was formulated at 0.12% w/v (the equivalent millimolar concentration is 3 mM) in 10 mM phosphate, 0.8% polysorbate 80, 0.85% NaCl, 0.01% BAC, 0.1% EDTA at three different pH's, 5.3, 6.3 and 7.3, Compound A was administered as a 30 μl drop to both eyes of each animal within a dosing group and the influence of pH on ocular and systemic exposure was examined.
# Study sampling. Plasma, aqueous humor, and ocular samples were obtained from 2 animals (4 eyes) per dosing group at times of 0.25, 0.5, 1, and 2 hours post dosing.
# Aqueous humor is the fluid within the anterior chamber of the eye and has the closest correlation to the concentration at the site of action, the trabecular meshwork. Cmax indicates the peak concentration of drug found within aqueous humor. AUC indicates total concentration of the drug within the aqueous humor over time.
# Plasma concentration analysis indicates systemic exposure. Systemic exposure is the exposure of the drug to the entire body. Cmax and AUC describe the peak concentration and total concentration of the drug over time, respectively, for Compound A in plasma.
# 40 μL of saline was applied to the eyes at 0.25 h, 0.5 h, 1 h, and 2 h after administration of Compound A, and the lavage fluids were collected as samples. Ocular surface relates to the surface of the cornea and conjunctiva. Ocular surface residence time is the average time Compound A resides on the ocular surface.
# [3] = Accelerated stability of Compound A formulation at 60° C., HPLC with UV detection; format: physicochemical; conditions: increase in pH from 5.3 to 6.3 and 7.3, 0.9% saline, 0.1% EDTA, 0.01% benzalkonium chloride, 0.8% polysorbate 80
# From the text: Compound A was formulated in a 0.9% saline solution containing 0.1% EDTA, 0.01% Benzalkonium Chloride and 0.8% Polysorbate 80 at three levels of pH; 5.3, 6.3 and 7.3.
# [4] = Solubility of Compound A at target pH 7.3 in 0.85% NaCl vehicle with surfactant or chelating agent, filtered, UV analysis; format: physicochemical; conditions: for Concentration Compound A: 20 mM prepared
# From the text: Concentrations of the surfactant used were at the maximum allowable concentration for excipients Generally Regarded As Safe (GRAS).
# [5] = Ocular comfort composite behaviour score after ocular instillation; format: in vivo, rabbit
# Method: Dose Formulation and Administration.
# Formulation A: 10 mM phosphate, 1% polysorbate 80, 0.85% NaCl, 0.02% BAC, 0.2% EDTA pH 7.0.
# Formulation B: 10 mM phosphate, 1% polysorbate 80, 2.36% Glycerol, 0.02% BAC, 0.2% EDTA pH 7.1.
# Formulation C: 10 mM phosphate, 1% polysorbate 80, 2.36% Glycerol, 0.02% BAC, 0.2% EDTA, 0.5% hydroxypropyl methyl cellulose, pH 7.1.
# Formulation D: 10 mM phosphate, 1% polysorbate 80, 2.36% Glycerol, 0.02% BAC, 0.2% EDTA, 1% 1,2 dimyristoyl-sn-glycero-3-phosphocholine, pH 7.1.
# Pharmacodynamic Analysis. Formulations A-D were administered as two 30 μl drops to the right eye of each rabbit within a dosing group. The rabbits were evaluated for 15 minutes after ocular instillation and their changes in behavior were recorded. […] The higher the score, the more discomfort an animal is. A mean±SE was generated for each group.
# [6] = […] w/v, 30 μl drop to both eyes, increasing pH 5.3, 6.3, 7.3
compound,measurement,setting,value
"CCS(=O)(=O)Nc1cccc(CN2CCC[C@@H](Nc3ccc4[nH]ncc4c3)C2)c1 [Compound 1.123, (R)-N-(3-((3-(1H-indazol-5-ylamino)piperidin-1-yl)methyl)phenyl)ethanesulfonamide]",solubility,"[1]; pH 5.6, read-out: maximum solubility",5000 µg/mL
same,Avg. Sol,[1]; pH 5.6,5001 µg/mL
same,Avg. Sol,[1]; pH 7.2,948 µg/mL
same,Avg. Sol,[1]; pH 8.5,282 µg/mL
"OCCOc1cccc(CN2CC[C@@H](Nc3cccc4cnccc34)C2)c1 [Compound 2.039, (R)-2-(3-((3-(isoquinolin-5-ylamino)pyrrolidin-1-yl)methyl)phenoxy)ethanol]",ocular surface concentration,"[2]; 0.25 h, between pH 5.3 and 6.3",increased only slightly
same,ocular surface concentration,"[2]; 0.25 h, from pH 6.3 to 7.3",no change
same,aqueous humor exposure (Cmax and AUC),[2]; [6],enhances the exposure within the aqueous humor
same,"plasma concentration (Cmax and AUC), systemic exposure",[2]; [6],no effect on the plasma concentration
same,ocular surface residence time,"[2]; […] w/v, pH increased from 5.3, 6.3 to 7.3, over 2 hours",increase in residence time
same,ocular surface concentration,"[2]; between 1 and 2 hours, pH 7.3",remained consistent
same,stability (percent of Compound A remaining),[3],decrease in stability
same,Concentration Compound A,"[4]; EDTA 0.3%, pH of solution 7.39, 0.85% NaCl",1380 µg/mL
same,Concentration Compound A,"[4]; HCO-40 (hydrogenated castor oil) 0.5%, pH of solution 7.39, 0.85% NaCl",2540 µg/mL
same,Concentration Compound A,"[4]; Poloxamer 188 0.1%, pH of solution 7.30, 0.85% NaCl",1490 µg/mL
same,Concentration Compound A,"[4]; Poloxamer 407 0.16%, pH of solution 7.28, 0.85% NaCl",6020 µg/mL
same,Concentration Compound A,"[4]; Polysorbate 80 1%, pH of solution 7.49, 0.85% NaCl",3850 µg/mL
same,solubility of Compound A among the surfactant formulations,"[4]; formulations containing polysorbate 80 and poloxamer 407, target pH 7.3",highest solubility
same,solubility,"[1]; pH 4-5.8, read-out: solubility",> 20000 µg/mL
same,Avg. Sol,[1]; pH 4.0,>20000 µg/mL
same,Avg. Sol,[1]; pH 5.8,>20000 µg/mL
same,Avg. Sol,[1]; pH 7.7,2312 µg/mL
same,ocular comfort score,"[5]; 0.16% w/v, two 30 μl drops, right eye, addition of 1% 1,2 dimyristoyl-sn-glycero-3-phosphocholine (Formulation D)",increased ocular discomfort
same,ocular comfort score,"[5]; increasing concentrations 0.03%, 0.1%, 0.32% w/v in formulation A",increased ocular discomfort
same,ocular comfort score,"[5]; lower concentrations 0.03 and 0.1% w/v in formulation A, versus ALPHAGAN, RESTASIS, pilocarpine, LUMIGAN",comparable to those of the approved glaucoma medications
